The record followed here is ChEMBL document CHEMBL1159245, “Antineoplastic agents, 326. The stereochemistry of bastadins 8, 10, and 12 from the Bismarck archipelago marine sponge Ianthella basta” (J Nat Prod, 1995).

Molecules are shown by their SMILES. Converted amounts (≈) assume the structure as drawn. The source made the active and inactive calls. The rule behind the calls is not given here.

One series deals with Candida albicans. As to the kind of experiment: Antifungal activity against Candida albicans ATCC 90028 at […] after 42 hrs. It counts as functional, organism-based.
For a further series, the system named is NCI-H460. In words: Growth inhibition of human NCI-H460 cells. As to conditions: read-out: ED50 (the source's name). It counts as functional.
Series [1] is described as follows: Growth inhibition of human SF295 cells. It counts as cell-based, SF-295. The settings on record: read-out: ED50 (the source's name).
The subject of another series is Escherichia coli. In words: Antibacterial activity against Escherichia coli ATCC 25922 at […] after 16 hrs. It counts as functional, organism-based.
For the next series, the system named is OVCAR-3. As to the kind of experiment: Growth inhibition of human OVCAR-3 cells. It counts as functional. As to conditions: read-out: ED50 (the source's name).
The subject of another series is Neisseria gonorrhoeae. As to the kind of experiment: Antibacterial activity against Neisseria gonorrhoeae ATCC 49226 at […] after 16 hrs. It counts as functional, organism-based.
A further series deals with A498. As to the kind of experiment: Growth inhibition of human A498 cells. It counts as functional. The settings on record: read-out: ED50 (the source's name).
Another series concerns Enterococcus faecalis. As to the kind of experiment: Antibacterial activity against Enterococcus faecalis ATCC 29212 assessed per 6 mm disk after 16 hrs. It counts as functional.
The next series concerns SK-MEL-5. In words: Growth inhibition of human SK-MEL-5 cells. It counts as functional. The settings on record: read-out: ED50 (the source's name).
The test system of the next series is Cryptococcus neoformans. In words: Antifungal activity against Cryptococcus neoformans ATCC 90112 at […] after 42 hrs. It counts as functional, organism-based.
A further series concerns P388. In words: Growth inhibition of mouse P388 cells. As to conditions: read-out: ED50 (the source's name). It counts as functional.
The subject of another series is Staphylococcus aureus. In words: Antibacterial activity against Staphylococcus aureus ATCC 29213 assessed per 6 mm disk after 16 hrs. It counts as functional.
A further series has as its system KM-20L2. In words: Growth inhibition of human KM20L2 cells. It counts as functional. As to conditions: read-out: ED50 (the source's name).
For another series, the system named is Bacillus subtilis. As to the kind of experiment: Antibacterial activity against Bacillus subtilis. It counts as functional.

On to `O=C1NCCc2cc(Br)c(O)c(c2)Oc2c(Br)cc(cc2Br)[C@H](O)CNC(=O)/C(=N/O)Cc2cc(Br)c(O)c(c2)Oc2ccc(cc2Br)C/C1=N\O` [BASTADIN 12], for which the result in the series with Candida albicans, with Escherichia coli, in the series on Neisseria gonorrhoeae and with Cryptococcus neoformans was inactive. Also, the EC50 in the series on NCI-H460 is 2.3 µg/mL (≈ 2.22 µM); with OVCAR-3, 2 µg/mL (≈ 1.93 µM); in the series on A498 it was 2.1 µg/mL (≈ 2.03 µM); in the series on SK-MEL-5, 2.2 µg/mL (≈ 2.13 µM); in the series on P388, 9.1 µg/mL (≈ 8.79 µM); with KM-20L2 it was 2.1 µg/mL (≈ 2.03 µM). The GI50 in [1] was 2.4 µg/mL (≈ 2.32 µM). In addition, the MIC came out at 50 µg in the series with Enterococcus faecalis and 6.25 µg in the series on Staphylococcus aureus.

`O=C1NCCc2cc(Br)c(O)c(c2)Oc2ccc(cc2Br)[C@H](O)CNC(=O)/C(=N/O)Cc2cc(Br)c(O)c(c2)Oc2c(Br)cc(cc2Br)C/C1=N\O` [BASTADIN 8]: the result in the series on Candida albicans, in the series with Escherichia coli, with Neisseria gonorrhoeae and in the series on Cryptococcus neoformans was inactive. Further, the EC50 was above 10 µg/mL in the series on NCI-H460; above 10 µg/mL in the series on OVCAR-3; 7 µg/mL (≈ 6.76 µM) in the series with A498; 9.9 µg/mL (≈ 9.56 µM) with SK-MEL-5; 22.6 µg/mL (≈ 21.8 µM) in the series on P388; above 10 µg/mL with KM-20L2. Further, in [1], the GI50 was above 10 µg/mL. In addition, the MIC is below 50 µg against Enterococcus faecalis and 0.195 µg in the series with Staphylococcus aureus.

With `O=C1NCCc2cc(Br)c(O)c(c2)Oc2ccc(cc2Br)[C@H](O)CNC(=O)/C(=N/O)Cc2cc(Br)c(O)c(c2)Oc2ccc(cc2Br)C/C1=N\O` [BASTADIN 10], the result in the series on Candida albicans, in the series on Escherichia coli, in the series on Neisseria gonorrhoeae and in the series on Cryptococcus neoformans was inactive. The EC50 with NCI-H460 is 3.4 µg/mL (≈ 3.56 µM); in the series with OVCAR-3, 2.9 µg/mL (≈ 3.03 µM); in the series on A498, 4.5 µg/mL (≈ 4.71 µM); in the series on SK-MEL-5, 3.7 µg/mL (≈ 3.87 µM); in the series on P388 it was above 10 µg/mL; in the series on KM-20L2, 2 µg/mL (≈ 2.09 µM). For the same molecule, the GI50 in series [1] is 3.2 µg/mL (≈ 3.35 µM). Also, the MIC was found to be 6.25 µg against Enterococcus faecalis and 1.56 µg with Staphylococcus aureus.

Turning to `O=C1NCCc2ccc(c(Br)c2)Oc2cc(ccc2O)CCNC(=O)/C(=N/O)Cc2cc(Br)c(O)c(c2)Oc2c(Br)cc(cc2Br)C/C1=N\O` [BASTADIN 13], the MIC in the series on Bacillus subtilis amounted to 6 µg/mL (≈ 6.38 µM).
